{"source": "patent US20180344702A1", "about": "“METHODS FOR TREATING PATIENTS WITH HEMATOLOGIC MALIGNANCIES” (Aptose Biosciences, Inc., priority 2017, published 2018)", "key": {"[1]": {"target": "BTK C481S (Homo sapiens, UniProt Q06187, C481S)", "sequence (Q06187 whole entry C481S)": "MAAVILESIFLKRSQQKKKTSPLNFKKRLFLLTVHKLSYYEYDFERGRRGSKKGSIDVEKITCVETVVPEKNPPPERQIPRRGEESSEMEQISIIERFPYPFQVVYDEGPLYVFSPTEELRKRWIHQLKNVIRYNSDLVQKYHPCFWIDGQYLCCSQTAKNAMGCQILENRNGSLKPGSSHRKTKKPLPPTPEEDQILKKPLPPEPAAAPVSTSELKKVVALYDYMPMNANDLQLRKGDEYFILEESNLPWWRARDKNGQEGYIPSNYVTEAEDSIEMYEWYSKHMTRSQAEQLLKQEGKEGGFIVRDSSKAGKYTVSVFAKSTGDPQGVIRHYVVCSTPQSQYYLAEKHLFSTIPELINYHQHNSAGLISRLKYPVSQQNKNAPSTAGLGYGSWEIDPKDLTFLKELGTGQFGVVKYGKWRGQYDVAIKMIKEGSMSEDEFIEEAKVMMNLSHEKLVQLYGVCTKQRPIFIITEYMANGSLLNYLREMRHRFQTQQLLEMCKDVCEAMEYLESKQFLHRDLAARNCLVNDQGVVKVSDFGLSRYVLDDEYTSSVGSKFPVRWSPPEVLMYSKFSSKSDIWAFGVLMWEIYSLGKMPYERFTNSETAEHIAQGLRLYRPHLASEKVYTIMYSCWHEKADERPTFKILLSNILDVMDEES", "test": "Comparative potency against BTK (Table 8)", "assay_type": "biochemical", "conditions": "x printed without key"}, "[2]": {"target": "T1, FLT3(D835Y) (Homo sapiens, UniProt P36888, D835Y)", "T1 construct": "made in house; host or cells: E. coli BL21-derived host (T7 phage) or HEK-293", "test": "Inhibition of FLT3 mutants, kinase IC50", "assay_type": "biochemical", "procedure": "RBC HotSpot Kinase Assay Protocol:\nReagents used: Base Reaction buffer; 20 mM Hepes (pH 7.5), 10 mM MgCl2, 1 mM EGTA, 0.02% Brij35, 0.02 mg/ml BSA, 0.1 mM Na3VO4, 2 mM DTT, 1% DMSO. Required cofactors are added individually to each kinase reaction.\nCompound 7 was dissolved in 100% DMSO to a specified concentration. The serial dilution was conducted by epMotion 5070 in DMSO. The substrate was freshly prepared in Reaction Buffer and any required cofactors to the substrate solution were added. The kinase was added to the solution and gently mixed. Compound 7 was added in 100% DMSO into the kinase reaction mixture by Acoustic technology (Echo550; nanoliter range), and incubated for 20 min at room temperature. ^33P-ATP (Specific activity 10 μCi/μl) was added into the reaction mixture to initiate the reaction, which was incubated for 2 hours, whereupon kinase activity was detected by the filter-binding method."}, "[3]": {"system": "Ramos", "test": "Polyploidy in B-cell lines (Edu and PI staining, FACS)", "assay_type": "cell-based", "conditions": "5 nM", "procedure": "(§1) Further mechanistic studies were undertaken to fully elucidate Compound 7's potent cytotoxicity. B-cell lines were treated with vehicle or Compound 7 for 24-72 hours and the increase in DNA content or polyploidy phenotype was assessed using Edu and PI staining followed by FACS analysis using the BD Accuri C6 flow cytometer.\n(§2) Mino and Ramos cell lines were treated with increasing concentrations of."}, "[4]": {"target": "ITK (Homo sapiens, UniProt Q08881)", "sequence (Q08881 whole entry)": "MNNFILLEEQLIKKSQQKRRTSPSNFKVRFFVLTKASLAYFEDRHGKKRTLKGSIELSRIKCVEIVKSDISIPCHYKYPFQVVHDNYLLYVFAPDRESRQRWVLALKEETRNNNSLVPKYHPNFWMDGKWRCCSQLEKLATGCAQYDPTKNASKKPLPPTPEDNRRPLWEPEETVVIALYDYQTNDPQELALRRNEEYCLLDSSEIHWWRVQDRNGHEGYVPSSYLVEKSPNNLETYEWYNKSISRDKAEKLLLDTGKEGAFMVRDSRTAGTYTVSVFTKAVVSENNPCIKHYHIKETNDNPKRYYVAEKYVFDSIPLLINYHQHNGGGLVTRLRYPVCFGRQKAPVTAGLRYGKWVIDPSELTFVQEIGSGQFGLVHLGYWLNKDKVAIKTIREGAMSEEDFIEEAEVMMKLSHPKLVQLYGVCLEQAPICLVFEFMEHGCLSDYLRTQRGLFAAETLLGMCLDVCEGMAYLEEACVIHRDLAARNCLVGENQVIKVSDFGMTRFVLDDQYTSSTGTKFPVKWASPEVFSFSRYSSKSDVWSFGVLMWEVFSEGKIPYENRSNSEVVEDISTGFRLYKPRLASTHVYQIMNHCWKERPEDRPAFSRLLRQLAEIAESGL", "test": "Key off-targets (Table 8)", "assay_type": "biochemical"}, "[5]": {"system": "EOL-1", "test": "Cytotoxicity in high serum conditions (MTS)", "assay_type": "cell-based", "conditions": "EOL-1, 72 hours, 10% vs 30%, 50%, 80% FBS", "procedure": "(§3) Compound 7 was tested in a dose-dependent manner at different serum concentrations. […] In this experiment, MV4-11 (n=6) and EOL-1(n=3˜6) cells were treated with or without Compound 7 for 72 hours in medium containing normal (10%) or high serum (30%, 50%, 80%) FBS with an MTS assay serving as an end point."}, "[6]": {"target": "FLT3(ITD) (Homo sapiens, UniProt P36888)", "test": "Binding constant (Kd), competition binding with qPCR readout", "design": "other: FLT3(ITD); kinase-tagged T7 phage strains were prepared in an E. coli host derived from the BL21 strain; fused on or other part: T7 phage fusion or DNA tag for qPCR detection"}, "[7]": {"system": "Mino cells", "test": "Polyploidy in B-cell lines (Edu and PI staining, FACS)", "assay_type": "cell-based, human", "conditions": "0.1 and 1.0 nM", "procedure": "as §1, §2"}, "[8]": {"system": "various heme cell lines (MV4-11, NOMO-1, and KG-1 cells)", "test": "Polyploidy, EdU and PI staining with FACS", "assay_type": "cell-based", "conditions": "24 hours, increasing concentrations", "procedure": "MV4-11, NOMO-1, and KG-1 cells were treated at increasing concentrations of Compound 7 for 24 hours, and the increase in DNA content or polploidy phenotype was assessed using EdU and PI staining followed by FACS analysis using the BD Accuri C6 flow."}, "[9]": {"system": "Kasumi-1 (FLT3-WT)", "test": "Antiproliferative activity (Table 6)", "assay_type": "cell-based", "conditions": "Homo sapiens, Kasumi 1, 72 h"}, "[10]": {"target": "T2, FLT3(D835H) (Homo sapiens, UniProt P36888, D835H)", "T2 construct": "made in house; host or cells: E. coli BL21-derived host (T7 phage) or HEK-293", "test": "Binding constant (Kd), kinase-tagged phage / affinity bead competition binding with qPCR readout"}, "[11]": {"system": "Mino", "test": "Cytotoxicity, MTS cell viability", "assay_type": "cell-based", "conditions": "Homo sapiens, 72 h, MCL, 3 days MTS", "procedure": "(§4) Cells were seeded in a 96 well plate and treated with either vehicle (DMSO) or compound 7 at 10 different concentrations for 3 days at 37° C. and 5% CO2. Cell viability was assessed using CellTiter 96 AQueous one solution (MTS Promega Cat#G3581), and IC50 values calculated using GraphPad Prism 7 software.\n(§5) Cytotoxicity procedure: Cells were seeded in 96-well plate and treated with vehicle DMSO or Compound 7 at a specified concentration and incubated for 72 hours."}, "[12]": {"system": "SU-DHL6", "test": "Cytotoxicity, MTS cell viability", "assay_type": "cell-based", "conditions": "Homo sapiens, SU-DHL-6, 72 h, DLBCL / GCB-DLBCL, 3 days MTS", "procedure": "as §4, §5"}, "[13]": {"system": "Daudi", "test": "Cytotoxicity, MTS cell viability", "assay_type": "cell-based", "conditions": "Homo sapiens, 72 h, Burkitt's, 3 days MTS", "procedure": "as §4, §5"}, "[14]": {"system": "RS411", "test": "Cytotoxicity, MTS cell viability", "assay_type": "cell-based", "conditions": "Homo sapiens, RS4-11, 72 h, ALL / B-ALL, 3 days MTS", "procedure": "as §4, §5"}, "[15]": {"system": "MEC-1", "test": "Cytotoxicity, MTS cell viability", "assay_type": "cell-based", "conditions": "CLL, 3 days MTS", "procedure": "as §4, §5"}, "[16]": {"system": "Raji", "test": "Cytotoxicity, MTS cell viability", "assay_type": "cell-based", "conditions": "Burkitt's, 3 days MTS", "procedure": "as §4, §5"}, "[17]": {"system": "K562", "test": "Cytotoxicity, MTS cell viability", "assay_type": "cell-based", "conditions": "Homo sapiens, 72 h, CML, 3 days MTS", "procedure": "as §4, §5"}, "[18]": {"system": "RL", "test": "Cytotoxicity, MTS cell viability", "assay_type": "cell-based", "conditions": "Homo sapiens, 72 h, DLBCL / GCB-DLBCL, 3 days MTS", "procedure": "as §4, §5"}, "[19]": {"system": "GRANTA-519", "test": "Cytotoxicity, MTS cell viability", "assay_type": "cell-based", "conditions": "Homo sapiens, 72 h, MCL, 3 days MTS", "procedure": "as §4, §5"}, "[20]": {"system": "Jeko-1", "test": "Cytotoxicity, MTS cell viability", "assay_type": "cell-based", "conditions": "Homo sapiens, 72 h, MCL, 3 days MTS", "procedure": "as §4, §5"}, "[21]": {"system": "Ramos", "test": "Cytotoxicity, MTS cell viability", "assay_type": "cell-based", "conditions": "Homo sapiens, 72 h, Burkitt's, 3 days MTS", "procedure": "as §4, §5"}, "[22]": {"system": "BTK pathway in EOL-1 cells", "test": "Western blot analysis in EOL-1 cells", "assay_type": "cell-based", "conditions": "0.5, 5.0, and 50 nM, FIG. 3", "procedure": "Immunoblot assays: Cells were treated with Compound 7 at various concentrations and collected for cell lysates. The total and phosphorylated levels of the indicated proteins were determined by Western Blot."}, "[23]": {"system": "MV4-11", "test": "Cytotoxicity in high serum conditions (MTS)", "assay_type": "cell-based, human", "conditions": "MV4-11, 72 hours, 10% vs 30%, 50%, 80% FBS", "procedure": "as §3"}, "[24]": {"target": "T1, FLT3(D835Y)", "test": "Binding constant (Kd), competition binding with qPCR readout"}}, "note": "pIC50, pKd: −log10 of the molar value."}
{"smiles": "Cc1cnc(-c2ccc(-c3ccc(NC(=O)Nc4c(F)cc(F)cc4F)cc3F)c3c2C(=O)NC3)[nH]1", "note": "[Compound 7, 1-{3-fluoro-4-[7-(5-methyl-1H-imidazol-2-yl)-1-oxo-2,3-dihydro-1H-isoindol-4-yl]-phenyl}-3-(2,4,6-trifluorophenyl)urea]", "values": [{"measurement": "pIC50", "setting": "[1]", "result": 8.60}, {"measurement": "pIC50", "setting": "[2]", "result": 6.78}, {"measurement": "Polyploidy (>4n) followed by apoptosis", "setting": "[3]", "result": "effectively induced polyploidy (>4n) followed by apoptosis"}, {"measurement": "pIC50", "setting": "[4]", "result": 8.37}, {"measurement": "Activity at high serum concentration", "setting": "[5]", "result": "retains high activity at high serum concentration"}, {"measurement": "pKd", "setting": "[6]", "result": 8.51}, {"measurement": "Polyploidy (>4n) followed by apoptosis", "setting": "[7]", "result": "effectively induced polyploidy (>4n) followed by apoptosis"}, {"measurement": "Polyploidies", "setting": "[8]", "result": "induce polyploidies"}, {"measurement": "pIC50", "setting": "[9]", "result": 7.66}, {"measurement": "pKd", "setting": "[10]", "result": 8.66}, {"measurement": "pIC50", "setting": "[11]", "result": 8.22}, {"measurement": "pIC50", "setting": "[12]", "result": 6.92}, {"measurement": "pIC50", "setting": "[13]", "result": 6.78}, {"measurement": "pIC50", "setting": "[14]", "result": 8.82}, {"measurement": "pIC50", "setting": "[15]", "result": 5.42}, {"measurement": "pIC50", "setting": "[15]; Homo sapiens, MEC1, 72 h", "result": 5.42}, {"measurement": "pIC50", "setting": "[16]", "result": 5.69}, {"measurement": "pIC50", "setting": "[16]; Homo sapiens, 72 h", "result": 5.69}, {"measurement": "pIC50", "setting": "[17]", "result": 4.89}, {"measurement": "pIC50", "setting": "[18]", "result": 6.37}, {"measurement": "pIC50", "setting": "[19]", "result": 7.87}, {"measurement": "pIC50", "setting": "[20]", "result": 7.13}, {"measurement": "pIC50", "setting": "[21]", "result": 7.73}, {"measurement": "Inhibition of BTK pathway (Western blot)", "setting": "[22]", "result": "inhibits BTK pathway"}, {"measurement": "Activity at high serum concentration", "setting": "[23]", "result": "retains high activity at high serum concentration"}, {"measurement": "pKd", "setting": "[24]", "result": 8.38}]}
